# From patent publication EP0462621A2, “Use of particular compounds for manufacture of pharmaceutical formulations for treatment against various parasites, mycoplasmas, other indications and other infections” (Prendergast, Patrick Thomas, priority 1990, dated 1991)
# Key:
# [1] = tested on: H9 cells; experiment: Cytotoxicity on uninfected H9 cells, 10 days continuous exposure; assay type: cell-based, human; conditions: read-out: ID50 - The concentration of IPA which kills 50% of the cells
# Protocol: (§1) The "Percent Dead Cells" are taken from Tables la(d) (iii) and la(d) (v) using the 10-day value, and the therapeutic index have been calculated for each drug concentration. The results of IPA are also graphed in Figures 16 and 17. Cytotoxicity (the dashed line) is calculated as the percent live cells.
# (§2) The availability of toxicity data collected in the same time frame as required for determination of antiviral effectiveness allowed determination of values for two different cell lines. Figures 16 and 17 illustrate the curves obtained by plotting the cytotoxicity of IPA (as a percent of the control cell viability) versus the percent of inhibition of HIV-1 replication (as a percent of the control titer) when H9 and 81-66-45 cells were tested. The cytotoxicity data obtained with 10 days continuous exposure, using uninfected cells, were used since 10 days was the length of time required to carry out the infectivity test. As is apparent from Tables la-(d) (ii) - la(d) (v), toxicity is much lower when the drug is added to cells for one day and then removed, or when cells are exposed for only 1 or 4 days. It is difficult to mimic in-vivo exposure times, particularly if metabolites are more toxic than the parent compound and are readily cleared in-vivo but not in-vitro.
# [2] = tested on: 81-66-45 Cells; experiment: Cytotoxicity on uninfected 81-66-45 cells, 10 days continuous exposure; assay type: cell-based; conditions: read-out: ID50 - The concentration of IPA which kills 50% of the cells
# Protocol: as §1, §2
# [3] = tested on: L donovani; experiment: Leishmania mouse/hamster models, in-vivo; conditions: Ld. Further: key: - no/poor activity,; + fair/moderate activity,; ++ good/excellent activity.
# From the text: (§3) In-vitro and in-vivo models were used to test activities of a selection of many compounds. Those activities are summarized in Tables 1-3, showing variation between systems and species. Activities measured in the MP mo and HM mo models have shown the best correlation with results obtained in hamster and mouse models.
# [4] = tested on: L major/L mexicana; experiment: Leishmania mouse/hamster models, in-vivo; conditions: Lm. Further: key: - no/poor activity,; + fair/moderate activity,; ++ good/excellent activity.
# From the text: as §3
# [5] = tested on: monocyte/macrophage cultures; experiment: Appearance and differentiation of monocyte/macrophage cultures in Experiment la(a); assay type: cell-based
# Protocol: Fresh macrophage cultures were obtained by incubation of mononuclear cells obtained from a leukopak directly in the wells of a microtiter plate having 6 wells per row. After removal of non-adherent cells, each row of the adherent macrophages was infected with 10-fold serial dilutions of HIV-I, with the use of polybrene to enhance uptake of the virus. After one to two hours, the virus inoculum was removed and replaced with fresh normal growth medium. The fresh medium for each row contained a particular concentration of AZT, dideoxy cytidine (ddC), or compound la, as indicated by the left-hand column of Table la(a). The first row of wells acted as a control, and to it was added fresh medium containing none of the three drugs. Medium levels were maintained for two to four weeks to allow replication of the virus to take place, with at least one complete fluid change to remove residual virus inoculum. The contents of each well were then tested for the level of HIV p24 antigen present using a commercially available antigen capture kit employing a radio-immunoassay which can detect as little as 10'^9gm of p24 present in a sample. The above procedure was done in duplicate runs.
compound,measurement,setting,value
"CC(C)=CCNc1ncnc2c1ncn2[C@@H]1O[C@H](CO)[C@@H](O)[C@H]1O [IPA, N^6-(Δ^2-isopentenyl) adenosine]",CC50,[1],50 µM
same,CC50,[2],40 µM
same,"Activity, mouse/ hamster models",[3],+
same,"Activity, mouse/ hamster models",[4],-
same,appearance of monocyte/macrophage cultures,[5]; all concentrations of IPA used (3-1000 μM),appeared to be healthy
same,differentiation of small immature monocytes into large adherent macrophage cells,[5]; in the presence of IPA,did not take place
